The source of these data is BindingDB's records for doi:10.1016/s0960-894x(00)00294-8 (Universität Göttingen, 2000).

A short description of this experiment: Compound was evaluated for inhibitory effect against protein phosphatase I (PP-I).

By IC50 is commonly meant the concentration that inhibits the measured activity by half. Low readings indicate higher potency, high ones lower potency. In turn, `CCCCCCCCCCCCCCCC(=O)OC[C@@H](O)[C@H]1OC(=O)[C@]2(O)CCC(O)O[C@]12OC` (stereo partly drawn) [Hexadecanoic acid (R)-2-((4aS,7R,7aR)-2,4a-dihydroxy-7a-methoxy-5-oxo-hexahydro-furo[3,4-b]pyran-7-yl)-2-hydroxy-ethyl ester] displayed an IC50 of 11 µM.

For `CCCCCCCCCCCCCCCC(=O)OC[C@@H](O)[C@H]1OC(=O)[C@]2(CCC(OC(C)C)O2)C1=O` (stereo partly drawn) [Hexadecanoic acid (R)-2-hydroxy-2-((5S,8R)-2-isopropoxy-6,9-dioxo-1,7-dioxa-spiro[4.4]non-8-yl)-ethyl ester], the midpoint of inhibition, the IC50, lay at 3 µM.
